Read-outs that look alike come from different tables or passages of the source.
Legend:
5-HT2A receptor = 5-HT2A receptor (Homo sapiens, UniProt P28223); experiment: Assay for 5-HT2A receptor inverse agonist activity (NIH3T3-5-HT2A R cells, Bright-Glo luciferase, cell inhibition rate)
Procedure: Assay for 5-HT2A Receptor Inverse Agonist Activity
• Cell line: adherent cells NIH3T3-5-HT2A R • Cell culture medium: DMEM + 10% FBS (purchased from GBICO) • Cell culture plate: 96-well white/clear bottom plate (purchased from Perkin Elmer) • Detection kit: Bright-Glo™ Luciferase (purchased from Promega) • Detection instrument: BioTek multimode microplate reader
NIH3T3-5HT2A R cells in the logarithmic growth phase were seeded into a 96-well white/clear bottom plate at a density of 1000 cells/well and then cultured overnight in an incubator at 37 °C with 5% CO2. […] Duplicate wells were set up for each concentration. […] After the drug addition, the cells were cultured in the incubator at 37 °C with 5% CO2 for another 120 h. On the sixth day, a Bright-Glo™ Luciferase reagent was added to the cells in a volume equal to that of the cell culture medium. The plate was then incubated in the dark at room temperature for 20 min, with the plate shaker vibrating once every 5 min. The luminescence intensity was detected using a microplate reader, and the cell inhibition rate was calculated. Data were processed using GraphPad Prism 7.0 to obtain the cell inhibition rate curve and calculate IC50.

[1] = In-vitro liver microsomal stability (human); assay type: in vitro ADME; conditions: Human liver microsomes, 1 µM, 0.5 mg/mL, NADPH
Procedure: (§1) Test Example 3. Evaluation of In-Vitro Liver Microsomal Stability
(§2) • 1) Preparation of test sample working solution: A test sample was diluted to 100 µM with methanol. • 2) Preparation of liver microsome working solution: Liver microsomes were diluted to 0.56 mg/mL with 100 mM phosphate-buffered saline. • 3) Preparation of working solution of reduced nicotinamide adenine dinucleotide phosphate (NADPH): A proper amount of NADPH was weighed out and diluted to 20 mM with phosphate-buffered saline, and then an equal volume of a 60 mM MgCl2 solution was added. • 4) Preparation of stop solution: Tolbutamide was diluted to 20 ng/mL with acetonitrile to serve as a stop solution containing an internal standard.
(§3) • 1) Anti-adsorption EP tubes for incubation were prepared and labeled with species, test samples, control samples (testosterone and dextromethorphan), time points (0 min, 5 min, 10 min, 20 min, 30 min, 60 min, Blank60, and NCF60), etc. • 2) 2 µL of test or control sample working solution and 178 µL of liver microsome working solution were added to each tube. For the Blank tube, 2 µL of acetonitrile was added instead of the test sample. The tubes were preincubated in a water bath at 37 °C for about 10 min, with 3 replicates set up for each sample. • 3) After the pre-incubation was completed, 20 µL of NADPH working solution was added to each tube except for the 0 min and NCF60 tubes to start the reaction. For the NCF60 tube, 20 µL of phosphate-buffered saline (containing 30 mM MgCl2) was added. In the incubation system, the final concentration of the test or control sample was 1 µM, the final concentration of liver microsomes was 0.5 mg/mL, the final concentration of NADPH was 1 mM, and the final concentration of MgCl2 was 3 mM. • 4) For the 0 min sample, 600 µL of stop solution was added, followed by the addition of the NADPH working solution. For the other samples, after each of them was incubated for the corresponding time, 600 µL of stop solution was added to stop the reaction. • 5) After the reaction was stopped, each sample was vortexed for 30 s and then centrifuged at 13500 rpm for 10 min. Then, 100 µL of the supernatant was transferred to an EP tube, and 100 µL of Milli-Q water was added. The mixture was well mixed by vortexing and analyzed by LC-MS/MS. • 6) Testosterone and dextromethorphan were used as positive control samples under the same conditions to assess the stability and reliability of the system.
(§4) Table 2: Test data for the compounds of the present disclosure in human and rat liver microsomes

[2] = In-vitro liver microsomal stability (rat); assay type: in vitro ADME; conditions: Rat liver microsomes, 1 µM, 0.5 mg/mL, NADPH
Procedure: as §1, §2, §3, §4

hERG potassium channels = hERG potassium channels (Homo sapiens, UniProt Q12809); experiment: cell-based
Procedure: • Species & strain: CHO-hERG cell line (Chinese hamster ovary cells stably expressing hERG channels) • Culture medium: 90% F12, 10% fetal bovine serum, 100 µg/mL G418, and 100 µg/mL Hygromycin B • Culture conditions: incubator at 37 °C with 5% CO2 • Cryopreservation condition: liquid nitrogen
On the day of the test, the compound was diluted with DMSO to an intermediate concentration. Then, 10 µL of the intermediate-concentration compound was transferred to 4990 µL of extracellular fluid, achieving a 500-fold dilution to obtain the final concentration to be tested.
hERG potassium channel currents were recorded at room temperature by the whole-cell patch clamp technique in the CHO (Chinese hamster ovary) cells stably expressing hERG potassium channels. Glass microelectrodes were formed by pulling a glass electrode blank (BF150-86-10, Sutter) using a puller. The tip resistance after perfusion of electrode internal solution was about 2-5 MΩ. The glass microelectrodes could be connected to a patch clamp amplifier after being inserted into amplifier probes. The clamping voltage and data recording were controlled and recorded by a computer with a pClamp 10 software, with a sampling frequency of 10 kHz and a filtering frequency of 2 kHz. After achieving the whole-cell recording, the cells were clamped at -80 mV. The step voltage evoking hERG potassium current (IhERG) was changed from -80 mV to +20 mV by applying a 2 s depolarization voltage, followed by repolarization to -50 mV for 1 s, and then returned to -80 mV. This voltage stimulation was applied every 10 s, and after it was determined that the hERG potassium currents were stable (1 min), the administration process was started. Each test concentration of the compound was applied for at least 1 min, and at least 2 cells (n ≥ 2) were tested for each concentration.

[3] = In-vitro liver microsomal stability (dog); assay type: in vitro ADME; conditions: Dog liver microsomes, 1 µM, 0.5 mg/mL, NADPH
Procedure: as §1, §2
as §3, with “system. […]” for “system.”

[4] = 5-HT2A inverse agonist activity IC50 (nM), NIH3T3-5HT2A R cells, 120 h, luminescence

Sequence of 5-HT2A receptor (P28223 whole entry): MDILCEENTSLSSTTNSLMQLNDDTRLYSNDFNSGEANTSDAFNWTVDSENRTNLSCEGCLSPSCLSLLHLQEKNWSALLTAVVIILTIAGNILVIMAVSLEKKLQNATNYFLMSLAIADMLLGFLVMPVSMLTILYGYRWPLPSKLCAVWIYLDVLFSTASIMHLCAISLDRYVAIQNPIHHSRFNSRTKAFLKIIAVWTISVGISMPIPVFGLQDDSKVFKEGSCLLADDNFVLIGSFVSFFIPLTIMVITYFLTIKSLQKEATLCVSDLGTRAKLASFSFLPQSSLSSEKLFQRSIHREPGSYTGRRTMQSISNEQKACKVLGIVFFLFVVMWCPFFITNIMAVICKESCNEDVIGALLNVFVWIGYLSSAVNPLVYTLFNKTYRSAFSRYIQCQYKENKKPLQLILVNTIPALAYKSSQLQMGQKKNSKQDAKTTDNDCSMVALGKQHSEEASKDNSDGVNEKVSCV
Sequence of hERG potassium channels (Q12809 whole entry): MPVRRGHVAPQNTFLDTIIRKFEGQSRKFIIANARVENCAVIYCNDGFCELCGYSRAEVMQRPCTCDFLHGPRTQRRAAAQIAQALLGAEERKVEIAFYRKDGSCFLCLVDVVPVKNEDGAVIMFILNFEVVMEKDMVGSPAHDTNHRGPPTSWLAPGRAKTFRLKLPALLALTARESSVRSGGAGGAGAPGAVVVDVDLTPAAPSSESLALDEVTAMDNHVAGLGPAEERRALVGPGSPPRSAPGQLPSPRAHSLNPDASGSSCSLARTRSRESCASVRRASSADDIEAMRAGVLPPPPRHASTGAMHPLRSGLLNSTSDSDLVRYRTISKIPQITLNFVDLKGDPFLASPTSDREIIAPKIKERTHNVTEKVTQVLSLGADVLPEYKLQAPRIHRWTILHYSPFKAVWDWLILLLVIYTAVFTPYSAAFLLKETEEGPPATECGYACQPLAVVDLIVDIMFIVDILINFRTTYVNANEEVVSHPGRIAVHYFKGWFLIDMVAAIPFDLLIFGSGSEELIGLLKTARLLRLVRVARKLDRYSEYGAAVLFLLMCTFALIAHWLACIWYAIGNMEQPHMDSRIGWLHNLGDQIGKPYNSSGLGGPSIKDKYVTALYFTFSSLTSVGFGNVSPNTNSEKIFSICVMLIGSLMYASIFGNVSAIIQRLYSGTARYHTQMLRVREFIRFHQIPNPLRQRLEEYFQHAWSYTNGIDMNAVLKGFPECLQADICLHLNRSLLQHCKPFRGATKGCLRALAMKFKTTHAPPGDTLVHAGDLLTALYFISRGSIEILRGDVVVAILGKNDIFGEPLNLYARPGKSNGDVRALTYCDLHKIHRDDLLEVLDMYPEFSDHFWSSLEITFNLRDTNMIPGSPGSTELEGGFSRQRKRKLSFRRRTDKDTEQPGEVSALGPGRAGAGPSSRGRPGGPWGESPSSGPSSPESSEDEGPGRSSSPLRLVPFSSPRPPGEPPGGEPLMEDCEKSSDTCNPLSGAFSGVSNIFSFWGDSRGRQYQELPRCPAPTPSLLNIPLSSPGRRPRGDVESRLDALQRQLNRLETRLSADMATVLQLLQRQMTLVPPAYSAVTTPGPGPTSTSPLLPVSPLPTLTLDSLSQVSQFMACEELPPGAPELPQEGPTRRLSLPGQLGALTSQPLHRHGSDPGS

Compound	Remaining amount% at 60 min [1] [%]	Remaining amount% at 60 min [2] [%]	IC50 (5-HT2A receptor) [nM]	IC50 (5-HT2A receptor; [4]) [nM]	IC50 (hERG potassium channels) [µM]	Remaining amount% at 60 min [3] [%]
CN1CCC(N(Cc2ccc(F)cn2)C(=O)NCc2ccc(OCC(F)(F)F)nc2)C2(CC2)C1 (single isomer, unassigned) [Compound 50A]	89.7	58.8	–	2.6	2.2	–
CN1CCC(N(Cc2ccc(F)cn2)C(=O)NCc2ccc3[nH]ccc3c2)CC1 [Compound 9]	93.1	–	–	28.2	3.12	45.3
CN1CCC(N(Cc2ccc(F)cn2)C(=O)NCc2ccc3ncccc3c2)CC1 [Compound 10]	71.9	–	–	29.6	3.86	58.6
CN1CCC(N(Cc2ccc(F)cn2)C(=O)NCc2ccc3c(ccn3C)c2)CC1 [Compound 12]	77.06	69.21	163	–	2.22	–
CN1CCC(N(Cc2ccc(F)cn2)C(=O)NCc2cnc(OCC(F)(F)F)c(Cl)c2)CC1 [Compound 27]	50.93	63.98	–	–	> 30	–

Continued, in another order:

Remaining amount% at 60 min [1] [%]	Remaining amount% at 60 min [2] [%]	IC50 (5-HT2A receptor) [nM]	Compound	IC50 (5-HT2A receptor; [4]) [nM]	IC50 (hERG potassium channels) [µM]	Remaining amount% at 60 min [3] [%]
38.94	54.78	–	CN1CCC(N(Cc2ccc(F)cn2)C(=O)NCc2cnc(OCC(F)(F)F)c(Br)c2)CC1 [Compound 28]	–	> 30	–
73.7	–	22.7	CN1CC[C@H](N(Cc2ccc(F)cn2)C(=O)NCc2ccc(OCC(F)(F)F)nc2)[C@@H](F)C1 [Compound 66]	–	2.99	85.1

Reference: patent EP4570793A1, “5-HT2A RECEPTOR INVERSE AGONIST, AND PREPARATION METHOD THEREFOR AND USE THEREOF” (Luye Innomind Pharma Shijiazhuang Co., Ltd., priority 2022, dated 2024)
